{"source": "patent US20220000106A1", "about": "“HERBICIDAL COMPOSITIONS AND RELATED METHODS” (BELCHIM Crop Protection USA LLC, priority 2020, published 2022)", "test_system": "various established weeds including Carolina False Dandelion, Hop Clover, White Clover, Annual Sedge, and Smooth Crabgrass", "test": "Field study of post-emergence weed control (overall percent weed control of combined weed species) in established Kentucky Tall Fescue", "assay_type": "in vivo", "conditions": "for efficacy of all weeds: eight days after treatment", "experimental": "Field studies were conducted on a mixed stand of established Kentucky Tall Fescue containing various established weeds including but not limited to Carolina False Dandelion, Hop Clover, White Clover, Annual Sedge, and Smooth Crabgrass in Selma, N.C. The trial location was mowed weekly at a mowing height of three inches. The distribution of weeds was uniform throughout the study.\nIndividual treatment plots were applied on a 1×3 meter squared plot area. The experimental design was a randomized complete block with three replications. The applications were made with a carbon dioxide backpack sprayer equipped with 11003 nozzles with a spray pressure of 40 psi calibrated to deliver approximately 40 gallons per acre spray volume. All applications were applied on a single day. The wind speed was less than 10 mph at time of application.\nData were collected at 2, 4, 8, 13, 23 and 30 days after application of treatments, respectively. Data were collected as an estimate of overall percent weed control (efficacy) of combined weed species taking into consideration necrosis, chlorosis, and stunting of each weed species. The data were analyzed in ARM using the ANOVA and preforming the Duncan's New MRT test at P=0.05 (indicated by “a,” “b,” “c,”, etc.).\nGlufosinate used in this trial was Surmise (2.34 lb/gal.) marketed by Albaugh LLC. Pelargonic Acid used in this trial was Beloukha Garden Herbicide (4.21 lb/gal.) marketed by Belchim Crop Protection USA.\nThe total percent weed control was calculated by comparing the individual treated plots and assessing individual weeds."}
{"smiles": "CP(=O)(O)CCC(N)C(=O)O", "note": "(stereo not shown) [Glufosinate, 2-amino-4-[hydroxy(methyl)phosphoryl]butanoic acid]", "values": [{"measurement": "Percent Control", "setting": "0.5 fluid oz/gal, 2 days after treatment", "value": 0.0, "unit": "b %"}, {"measurement": "Percent Control", "setting": "0.5 fluid oz/gal, 4 days after treatment", "value": 20.0, "unit": "c %"}, {"measurement": "Percent Control", "setting": "0.5 fluid oz/gal, 8 days after treatment", "value": 85.0, "unit": "ab %"}, {"measurement": "Percent Control", "setting": "0.5 fluid oz/gal, 13 days after treatment", "value": 90.0, "unit": "b %"}, {"measurement": "Percent Control", "setting": "0.5 fluid oz/gal, 23 days after treatment", "value": 85.2, "unit": "b %"}, {"measurement": "Percent Control", "setting": "0.5 fluid oz/gal, 30 days after treatment", "value": 83.6, "unit": "b %"}, {"measurement": "Percent Control", "setting": "1.0 fluid oz/gal, 2 days after treatment", "value": 0.0, "unit": "b %"}, {"measurement": "Percent Control", "setting": "1.0 fluid oz/gal, 4 days after treatment", "value": 15.0, "unit": "cd %"}, {"measurement": "Percent Control", "setting": "1.0 fluid oz/gal, 8 days after treatment", "value": 91.0, "unit": "a %"}, {"measurement": "Percent Control", "setting": "1.0 fluid oz/gal, 13 days after treatment", "value": 90.7, "unit": "b %"}, {"measurement": "Percent Control", "setting": "1.0 fluid oz/gal, 23 days after treatment", "value": 90.4, "unit": "b %"}, {"measurement": "Percent Control", "setting": "1.0 fluid oz/gal, 30 days after treatment", "value": 95.0, "unit": "a %"}, {"measurement": "Percent Control", "setting": "2.0 fluid oz/gal, 2 days after treatment", "value": 0.0, "unit": "b %"}, {"measurement": "Percent Control", "setting": "2.0 fluid oz/gal, 4 days after treatment", "value": 15.0, "unit": "cd %"}, {"measurement": "Percent Control", "setting": "2.0 fluid oz/gal, 8 days after treatment", "value": 94.3, "unit": "a %"}, {"measurement": "Percent Control", "setting": "2.0 fluid oz/gal, 13 days after treatment", "value": 98.0, "unit": "a %"}, {"measurement": "Percent Control", "setting": "2.0 fluid oz/gal, 23 days after treatment", "value": 99.1, "unit": "a %"}, {"measurement": "Percent Control", "setting": "2.0 fluid oz/gal, 30 days after treatment", "value": 97.1, "unit": "a %"}, {"measurement": "efficacy of all weeds", "setting": "all glufosinate treatments at all dose rates", "value": "85 to 94", "unit": "%"}, {"measurement": "control of all weeds (efficacy)", "setting": "glufosinate alone, all dose rates, 23 days after treatment", "value": "85 to 99", "unit": "%"}]}
{"smiles": "CCCCCCCCC(=O)O", "note": "[Pelargonic Acid, nonanoic acid]", "values": [{"measurement": "Percent Control", "setting": "3.2 fluid oz/gal, 2 days after treatment", "value": 6.7, "unit": "b %"}, {"measurement": "Percent Control", "setting": "3.2 fluid oz/gal, 4 days after treatment", "value": 20.0, "unit": "c %"}, {"measurement": "Percent Control", "setting": "3.2 fluid oz/gal, 8 days after treatment", "value": 40.0, "unit": "c %"}, {"measurement": "Percent Control", "setting": "3.2 fluid oz/gal, 13 days after treatment", "value": 22.2, "unit": "d %"}, {"measurement": "Percent Control", "setting": "3.2 fluid oz/gal, 23 days after treatment", "value": 20.0, "unit": "d %"}, {"measurement": "Percent Control", "setting": "3.2 fluid oz/gal, 30 days after treatment", "value": 20.0, "unit": "c %"}, {"measurement": "Percent Control", "setting": "6.4 fluid oz/gal, 2 days after treatment", "value": 40.0, "unit": "a %"}, {"measurement": "Percent Control", "setting": "6.4 fluid oz/gal, 2 days after treatment, listed as pelargonic acid", "value": 40, "unit": "%"}, {"measurement": "Percent Control", "setting": "6.4 fluid oz/gal, 4 days after treatment", "value": 50.0, "unit": "b %"}, {"measurement": "Percent Control", "setting": "6.4 fluid oz/gal, 8 days after treatment", "value": 73.3, "unit": "b %"}, {"measurement": "Percent Control", "setting": "6.4 fluid oz/gal, 13 days after treatment", "value": 66.7, "unit": "c %"}, {"measurement": "Percent Control", "setting": "6.4 fluid oz/gal, 23 days after treatment", "value": 40.0, "unit": "c %"}, {"measurement": "Percent Control", "setting": "6.4 fluid oz/gal, 30 days after treatment", "value": 23.2, "unit": "c %"}, {"measurement": "efficacy of all weeds", "setting": "pelargonic acid alone, both dose rates", "value": "40% to 73"}]}
